The ED50 is the dose that gives a 50% effect, or the effect in half of the subjects. As usually defined, the EC50 is the concentration needed to bring the measured effect to its halfway point. A higher EC50 goes with a need for much substance.

The subject of one test is Rattus norvegicus. The test can be described thus: Antiinflammatory activity in po dosed rat assessed as inhibition of reverse passive arthus reaction. The format is functional.
Test [1] addresses Potassium voltage-gated channel subfamily A member 3 (Mus musculus, UniProt P16390). In words: Inhibition of mouse Kv1.3 expressed in L929 cells at -80 mV holding potential by whole cell patch-clamp method. Type of test: cell-based.
Test [2] is described as follows: Selectivity ratio of mouse Kv1.3 to ratio of KCa3.1 (unknown origin).

Sequence of Potassium voltage-gated channel subfamily A member 3 (P16390 whole entry): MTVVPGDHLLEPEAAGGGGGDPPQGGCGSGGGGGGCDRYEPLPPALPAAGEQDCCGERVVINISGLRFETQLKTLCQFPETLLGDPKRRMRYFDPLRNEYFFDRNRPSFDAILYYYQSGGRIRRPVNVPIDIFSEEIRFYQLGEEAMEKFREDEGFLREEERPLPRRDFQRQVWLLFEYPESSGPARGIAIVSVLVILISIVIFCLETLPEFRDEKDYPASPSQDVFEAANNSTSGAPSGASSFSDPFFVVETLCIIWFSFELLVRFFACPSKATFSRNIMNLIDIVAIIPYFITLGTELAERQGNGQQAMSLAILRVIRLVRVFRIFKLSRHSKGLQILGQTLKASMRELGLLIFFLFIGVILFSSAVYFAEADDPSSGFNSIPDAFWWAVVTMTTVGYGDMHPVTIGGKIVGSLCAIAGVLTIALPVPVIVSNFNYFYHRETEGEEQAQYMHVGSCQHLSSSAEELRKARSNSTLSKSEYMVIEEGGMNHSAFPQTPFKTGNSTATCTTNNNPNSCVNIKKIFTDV

For the compound `Cc1cc(=O)c2c(O)cc(O)c([C@H]3CCN(C)C[C@H]3O)c2o1` [ROHITUKINE], the ED50 with Rattus norvegicus turned out to be 2.5 mg/kg.
The compound `COc1c(C(C)=O)c(O)c(OCCCc2ccccc2)c2occc12` gave an EC50 in test [1] of 1000 nM. Besides, the Selectivity ratio in test [2] came to 10.

Source of the values: ChEMBL document CHEMBL3813619, “Feeling Nature's PAINS: Natural Products, Natural Product Drugs, and Pan Assay Interference Compounds (PAINS)” (J Nat Prod, 2016).
